{"source": "patent US9453014B2", "about": "“Cyclic amide derivatives as inhibitors of 11-β-hydroxysteroid dehydrogenase and uses thereof” (CONNEXIOS LIFE SCIENCES PVT. LTD., priority 2011, dated 2016)", "target": "T1, human full length HSD11 β 1 (Homo sapiens, UniProt P28845)", "T1 construct": "transient expression of human full length HSD11 β 1 expression vector; host or cells: CHO cells (transient transfection)", "T1 sequence (P28845 whole entry)": "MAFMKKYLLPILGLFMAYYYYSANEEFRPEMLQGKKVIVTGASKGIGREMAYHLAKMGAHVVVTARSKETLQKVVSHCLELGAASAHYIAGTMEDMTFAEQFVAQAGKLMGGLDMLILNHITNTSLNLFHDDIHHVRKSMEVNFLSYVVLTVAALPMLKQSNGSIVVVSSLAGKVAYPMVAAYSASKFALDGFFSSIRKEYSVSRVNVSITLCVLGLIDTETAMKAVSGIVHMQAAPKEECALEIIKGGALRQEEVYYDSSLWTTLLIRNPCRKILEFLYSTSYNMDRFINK", "experiment": "In Vitro HSD11β1 Inhibition Assay", "assay_type": "cell-based", "settings": "CHO cells transiently expressing human HSD11β1; 200 nM cortisone+500 uM NADPH overnight; cortisone to cortisol by LC/MS-MS; read-out: 11βHSD1 (IC50)", "how_it_was_run": "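CHO cells transiently transfected with human full-length HSD11β1 were re-seeded after 24 h and, 24 h later, incubated overnight with 200 nM cortisone plus 500 uM NADPH and inhibitor. Cortisone-to-cortisol conversion was measured by LC/MS-MS. IC50 from an 8-point log concentration–inhibition curve.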"}
{"compound": "CC(CC(=O)N1CCCC2C(C(=O)O)CCCC21)c1c[nH]c2cccc(-c3ccco3)c12", "note": "(single isomer, unassigned) [Compound 224, 1-{3-[4-(furan-2-yl)-1H-indol-3-yl]butanoyl}decahydroquinoline-5-carboxylic acid]", "values": [{"measurement": "IC50", "value": "< 100", "unit": "nM"}]}
{"compound": "O=C(CCc1c[nH]c2ccccc12)N1CCCC2CCCCC21", "note": "(single isomer, unassigned) [Compound 52, 3-(1H-indol-3-yl)-1-(octahydroquinolin-1(2H)-yl)propan-1-one]", "values": [{"measurement": "IC50", "value": "> 250", "unit": "nM"}]}
{"compound": "CC(CC(=O)N1CCOC2CCCCC21)c1c[nH]c2ncccc12", "note": "(centres unmarked) [Compound 22, 1-(octahydro-4H-1,4-benzoxazin-4-yl)-3-(1H-pyrrolo[2,3-b]pyridin-3-yl)butan-1-one]", "values": [{"measurement": "IC50", "value": "> 250", "unit": "nM"}]}
{"compound": "CC(CC(=O)N1C(C)CCC2C(C(=O)O)CCCC21)c1c[nH]c2cccc(C3CC3)c12", "note": "(centres unmarked) [Compound 230, 1-[3-(4-cyclopropyl-1H-indol-3-yl)butanoyl]-2-methyldecahydroquinolin-5-carboxylic acid]", "values": [{"measurement": "IC50", "value": "150 to 200", "unit": "nM"}]}
{"compound": "CC(CC(=O)N1CCCC2CCCCC21)c1c[nH]c2cccc(F)c12", "note": "(centres unmarked) [Example 121, 3-(4-fluoro-1H-indol-3-yl)-1-(octahydroquinolin-1(2H)-yl)butan-1-one]", "values": [{"measurement": "IC50", "value": "< 100", "unit": "nM"}]}
{"compound": "Cc1ccc(-c2cccc3[nH]cc(C(C)CC(=O)N4CCCC5C(C(=O)O)CCCC54)c23)o1", "note": "(centres unmarked) [Compound 236, 1-{3-[4-(5-methylfuran-2-yl)-1H-indol-3-yl]butanoyl}decahydroquinoline-5-carboxylic acid]", "values": [{"measurement": "IC50", "value": "100 to 150", "unit": "nM"}]}
{"compound": "CC(CC(=O)N1CCCC2C(C(=O)O)CCCC21)c1c[nH]c2cccc(-c3ccccc3F)c12", "note": "(centres unmarked) [Compound 257, 1-{3-[4-(2-fluorophenyl)-1H-indol-3-yl]butanoyl}decahydroquinoline-5-carboxylic acid]", "values": [{"measurement": "IC50", "value": "100 to 150", "unit": "nM"}]}
{"compound": "O=C(CCn1ccc2ccccc21)N1CCCC2CCCCC21", "note": "(centres unmarked) [Compound 18, 3-(1H-indol-1-yl)-1-(octahydroquinolin-1(2H)-yl)propan-1-one]", "values": [{"measurement": "IC50", "value": "> 250", "unit": "nM"}]}
{"compound": "CC1CCC2CCCCC2N1C(=O)CCc1c[nH]c2ncccc12", "note": "(centres unmarked) [Example 86, 1-(2-methyloctahydroquinolin-1(2H)-yl)-3-(1H-pyrrolo[2,3-b]pyridin-3-yl)propan-1-one]", "values": [{"measurement": "IC50", "value": "< 100", "unit": "nM"}]}
{"compound": "CC(CC(=O)N1CCCC2C(C(=O)O)CCCC21)c1cn(C)c2cccc(-c3ccco3)c12", "note": "(centres unmarked) [Compound 216, 1-{3-[4-(furan-2-yl)-1-methyl-1H-indol-3-yl]butanoyl}decahydroquinoline-5-carboxylic acid]", "values": [{"measurement": "IC50", "value": "< 100", "unit": "nM"}]}
{"compound": "O=C(CCc1c[nH]c2ccccc12)N1CCCC2CCCCC21", "note": "(single isomer, unassigned) [Compound 53, 3-(1H-indol-3-yl)-1-(octahydroquinolin-1(2H)-yl)propan-1-one]", "values": [{"measurement": "IC50", "value": "< 100", "unit": "nM"}]}
{"compound": "CC(C)Oc1cccc2[nH]cc(C(C)CC(=O)N3CCCC4C(C(=O)O)CCCC43)c12", "note": "(centres unmarked) [Compound 201, 1-{3-[4-(propan-2-yloxy)-1H-indol-3-yl]butanoyl}decahydroquinoline-5-carboxylic acid]", "values": [{"measurement": "IC50", "value": "< 100", "unit": "nM"}]}
{"compound": "CC(C)C(CC(=O)N1CCC(=O)C2CCCCC21)c1c[nH]c2ccccc12", "note": "(centres unmarked) [Example 104, 1-[3-(1H-indol-3-yl)-4-methylpentanoyl]octahydroquinolin-4(1H)-one]", "values": [{"measurement": "IC50", "value": "> 250", "unit": "nM"}]}
{"compound": "O=C(O)C1CC2CCCCC2N(C(=O)CC(c2ccccc2)c2c[nH]c3cc(F)ccc23)C1", "note": "(centres unmarked) [Example 175, 1-[3-(6-fluoro-1H-indol-3-yl)-3-phenylpropanoyl]decahydroquinoline-3-carboxylic acid]", "values": [{"measurement": "IC50", "value": "> 250", "unit": "nM"}]}
{"compound": "O=C(O)C1CCN(C(=O)CC(c2ccc(F)cc2)c2c[nH]c3cccc(F)c23)C2CCCCC12", "note": "(centres unmarked) [Example 157, 1-[3-(4-fluoro-1H-indol-3-yl)-3-(4-fluorophenyl)propanoyl]decahydroquinoline-4-carboxylic acid]", "values": [{"measurement": "IC50", "value": "< 100", "unit": "nM"}]}
{"compound": "CC(CC(=O)N1CCCC2C(C(=O)O)CCCC21)c1c[nH]c2cccc(-c3ccco3)c12", "note": "(centres unmarked) [Compound 221, 1-{3-[4-(furan-2-yl)-1H-indol-3-yl]butanoyl}decahydroquinoline-5-carboxylic acid]", "values": [{"measurement": "IC50", "value": "< 100", "unit": "nM"}]}
{"compound": "CC(CC(=O)N1CCCC2C(C(=O)O)CCCC21)c1c[nH]c2cccc(-c3ccc(F)o3)c12", "note": "(centres unmarked) [Compound 245, 1-{3-[4-(5-fluorofuran-2-yl)-1H-indol-3-yl]butanoyl}decahydroquinoline-5-carboxylic acid]", "values": [{"measurement": "IC50", "value": "< 100", "unit": "nM"}]}
{"compound": "CC(CC(=O)N1CCCC2(CO)CCCCC12)c1c[nH]c2ncccc12", "note": "(centres unmarked) [Example 146, 1-[4a-(hydroxymethyl)octahydroquinolin-1(2H)-yl]-3-(1H-pyrrolo[2,3-b]pyridin-3-yl)butan-1-one]", "values": [{"measurement": "IC50", "value": "> 250", "unit": "nM"}]}
{"compound": "CC(=O)NC(Cc1c[nH]c2ccccc12)C(=O)N1CCCC2CCCCC21", "note": "(centres unmarked) [Example 96, N-[3-(1H-indol-3-yl)-1-(octahydroquinolin-1(2H)-yl)-1-oxopropan-2-yl]acetamide]", "values": [{"measurement": "IC50", "value": "> 250", "unit": "nM"}]}
{"compound": "CC(CC(=O)N1CCCC2C(C(=O)O)CCCC21)c1c[nH]c2cccc(-c3ccco3)c12", "note": "(single isomer, unassigned) [Compound 223, 1-{3-[4-(furan-2-yl)-1H-indol-3-yl]butanoyl}decahydroquinoline-5-carboxylic acid]", "values": [{"measurement": "IC50", "value": "100 to 150", "unit": "nM"}]}
{"compound": "CC(CC(=O)N1CCCC2C(C(=O)O)CCCC21)c1c[nH]c2cccc(C3CC3)c12", "note": "(single isomer, unassigned) [Compound 198, 1-[3-(4-cyclopropyl-1H-indol-3-yl)butanoyl]decahydroquinoline-5-carboxylic acid]", "values": [{"measurement": "IC50", "value": "100 to 150", "unit": "nM"}]}
{"compound": "CC(C)C(CC(=O)N1CCC(C(=O)O)C2CCCCC21)c1c[nH]c2cc(Cl)ccc12", "note": "(centres unmarked) [Example 185, 1-[3-(6-chloro-1H-indol-3-yl)-4-methylpentanoyl]decahydroquinoline-4-carboxylic acid]", "values": [{"measurement": "IC50", "value": "150 to 200", "unit": "nM"}]}
{"compound": "CC(C)C(CC(=O)N1CCCC2(C)CCCCC12)c1c[nH]c2cccc(F)c12", "note": "(single isomer, unassigned) [Example 116, 3-(4-fluoro-1H-indol-3-yl)-4-methyl-1-(4a-methyloctahydroquinolin-1(2H)-yl)pentan-1-one]", "values": [{"measurement": "IC50", "value": "> 250", "unit": "nM"}]}
{"compound": "CC(CC(=O)N1CCCC2C(C(=O)O)CCCC21)c1c[nH]c2cccc(C3CC3)c12", "note": "(single isomer, unassigned) [Compound 196, 1-[3-(4-cyclopropyl-1H-indol-3-yl)butanoyl]decahydroquinoline-5-carboxylic acid]", "values": [{"measurement": "IC50", "value": "< 100", "unit": "nM"}]}
{"compound": "CC(CC(=O)N1CCCC2C(C(=O)O)CCCC21)c1c[nH]c2cccc(-c3ccc(F)o3)c12", "note": "(single isomer, unassigned) [Compound 250, 1-{3-[4-(5-fluorofuran-2-yl)-1H-indol-3-yl]butanoyl}decahydroquinoline-5-carboxylic acid]", "values": [{"measurement": "IC50", "value": "< 100", "unit": "nM"}]}
{"compound": "CC(CC(=O)N1CCCC2CCCCC21)c1c[nH]c2cccc(N3CCC(C(=O)O)CC3)c12", "note": "(centres unmarked) [Compound 202, 1-{3-[4-(octahydroquinolin-1(2H)-yl)-4-oxobutan-2-yl]-1H-indol-4-yl}piperidine-4-carboxylic acid]", "values": [{"measurement": "IC50", "value": "> 250", "unit": "nM"}]}
{"compound": "O=C(O)C1CCCC2C1CCCN2C(=O)CC(c1ccccc1)c1c[nH]c2cccc(F)c12", "note": "(centres unmarked) [Example 188, 1-[3-(4-fluoro-1H-indol-3-yl)-3-phenylpropanoyl]decahydroquinoline-5-carboxylic acid]", "values": [{"measurement": "IC50", "value": "< 100", "unit": "nM"}]}
{"compound": "CC(C)(C)NC(=O)C1CC2CCCCC2CN1C(=O)CCc1c[nH]c2ccccc12", "note": "(centres unmarked) [Compound 23, N-tert-butyl-2-[3-(1H-indol-3-yl)propanoyl]decahydroisoquinoline-3-carboxamide]", "values": [{"measurement": "IC50", "value": "> 250", "unit": "nM"}]}
{"compound": "CC(CC(=O)N1CCO[C@H]2CCCCC21)c1c[nH]c2cccc(F)c12", "note": "(single isomer, unassigned) [Example 140, 3-(4-fluoro-1H-indol-3-yl)-1-[cis-(4a,8a)-octahydro-4H-1,4-benzoxazin-4-yl]butan-1-one]", "values": [{"measurement": "IC50", "value": "< 100", "unit": "nM"}]}
{"compound": "CC(CC(=O)N1CCC(C(=O)O)C2CCCCC21)c1c[nH]c2ncccc12", "note": "(centres unmarked) [Example 165, 1-[3-(1H-pyrrolo[2,3-b]pyridin-3-yl)butanoyl]decahydroquinoline-4-carboxylic acid]", "values": [{"measurement": "IC50", "value": "> 250", "unit": "nM"}]}
{"compound": "Cc1[nH]c2ccccc2c1CCC(=O)N1CCCC2CCCCC21", "note": "(centres unmarked) [Compound 17, 3-(2-methyl-1H-indol-3-yl)-1-(octahydroquinolin-1(2H)-yl)propan-1-one]", "values": [{"measurement": "IC50", "value": "< 100", "unit": "nM"}]}
{"compound": "O=C(CCc1c[nH]c2ccccc12)N1CCCCC2CCCCC21", "note": "(centres unmarked) [Compound 54, 1-(decahydro-1H-1-benzazepin-1-yl)-3-(1H-indol-3-yl)propan-1-one]", "values": [{"measurement": "IC50", "value": "> 250", "unit": "nM"}]}
{"compound": "O=C(CCc1c[nH]c2ccccc12)N1CCC2CCCCC21", "note": "(centres unmarked) [Compound 41, 3-(1H-indol-3-yl)-1-(octahydro-1H-Indol-1-yl)propan-1-one]", "values": [{"measurement": "IC50", "value": "100 to 150", "unit": "nM"}]}
{"compound": "CC(CC(=O)N1CCCC2C(C(=O)NCC(=O)O)CCCC21)c1c[nH]c2cccc(C3CC3)c12", "note": "(centres unmarked) [Compound 247, N-({1-[3-(4-cyclopropyl-1H-indol-3-yl)butanoyl]decahydroquinolin-5-yl}carbonyl)glycine]", "values": [{"measurement": "IC50", "value": "> 250", "unit": "nM"}]}
{"compound": "Cc1cccc2[nH]cc(CCC(=O)N3CC(C)(C)OC4CCCCC43)c12", "note": "(centres unmarked) [Compound 68, 1-(2,2-dimethyloctahydro-4H-1,4-benzoxazin-4-yl)-3-(4-methyl-1H-indol-3-yl)propan-1-one]", "values": [{"measurement": "IC50", "value": "> 250", "unit": "nM"}]}
{"compound": "CC(CC(=O)N1CCCC2C(C(=O)O)CCCC21)c1c[nH]c2cccc(-c3ccco3)c12", "note": "(centres unmarked) [Compound 215, 1-{3-[4-(furan-2-yl)-1H-indol-3-yl]butanoyl}decahydroquinoline-5-carboxylic acid]", "values": [{"measurement": "IC50", "value": "< 100", "unit": "nM"}]}
{"compound": "O=C(CCc1nc2ccccc2s1)N1CCO[C@@H]2CCCC[C@H]21", "note": "(relative stereo) [Example 79, 3-(1,3-benzothiazol-2-yl)-1-[trans-(4a,8a)-octahydro-4H-1,4-benzoxazin-4-yl]propan-1-one]", "values": [{"measurement": "IC50", "value": "> 250", "unit": "nM"}]}
{"compound": "O=C(CCc1cn(S(=O)(=O)c2ccccc2)c2ncccc12)N1CCCC2CCCCC21", "note": "(centres unmarked) [Example 85, 1-(octahydroquinolin-1(2H)-yl)-3-[1-(phenylsulfonyl)-1H-pyrrolo[2,3-b]pyridin-3-yl]propan-1-one]", "values": [{"measurement": "IC50", "value": "> 250", "unit": "nM"}]}
